Where two headings read alike, the source gives them in different places.
Key:
Assay type in all cases: cell-based
[1] = tested on: Cal33 cells; experiment: Cal33 growth inhibition; conditions: for IC50: Table 2, read-out: Cal33 (IC50)
[2] = tested on: STAT1; experiment: STAT1 assay (selectivity counter-screen)
[3] = tested on: STAT3; experiment: HCS STAT3 assay
[4] = tested on: FADU; experiment: Growth inhibition on HNSCC cell line FADU; conditions: average of 2 experiments
[5] = tested on: OSC19; experiment: Growth inhibition on HNSCC cell line OSC19; conditions: average of 2 experiments; read-out: 0SC19 GI50
[6] = tested on: 686LN; experiment: Growth inhibition on HNSCC cell line 686LN; conditions: average of 2 experiments
[7] = tested on: HNSCC cell lines 686LN, FADU, CAL33, OSC19; experiment: Growth inhibition on HNSCC cell line panel; conditions: range over cell lines 686LN
[8] = Table 5, * average of 2 experiments
[9] = Table 5, * average of 2 experiments, read-out: STAT3 IC50 (converted)
[10] = Table 6, average of 2 experiments
[11] = Table 4, read-out: STAT3 IC50 (converted)
[12] = Table 2, read-out: STAT3 (IC50)

CCC(C)C1Sc2nnc(-c3cc(-c4ccccc4)n[nH]3)n2N=C1c1ccc(OC)cc1 (stereo not drawn) [Cmpd 28]
GI50 [1, 8]: 0.5 µM
IC50 [2, 8]: > 50 µM

CC1Sc2nnc(-c3cc(-c4ccc(F)cc4)n[nH]3)n2N=C1c1ccccc1 (stereo not drawn) [Cmpd 22]
GI50 [1, 8]: 36.3 ± 9.7 µM
IC50 [2, 8]: > 30 µM
IC50 [3, 9]: 3.8 ± 0.8 µM

Clc1ccc(C2=Nn3c(nnc3-c3cc(-c4ccccc4)n[nH]3)SC2)cc1Cl [1b]
IC50 ([2]; Table 4): > 50 µM

COc1ccc(C2=Nn3c(nnc3-c3[nH]nc4c3CCC4)SC2C(C)C)cc1 (stereo not drawn) [Cmpd 26]
GI50 [1, 8]: 0.4 ± 0.1 µM
IC50 [2, 8]: > 50 µM

CCC(C)C1Sc2nnc(-c3[nH]nc4c3CCC4)n2N=C1c1ccc(OC)cc1 (stereo not drawn) [Cmpd 27]
GI50 [1, 8]: 3.5 ± 1.5 µM
IC50 [2, 8]: > 50 µM
IC50 [3, 9]: 4.1 µM

COc1ccc(C2=Nn3c(nnc3-c3[nH]nc4c3CCC4)SC2C)cc1 (stereo not drawn) [compound 20]
GI50 [1, 10]: 0.18 µM
GI50 [4]: 1.3 µM
GI50 [5]: 3.1 µM
GI50 [6]: 0.88 µM

C1=Nn2c(nnc2-c2[nH]nc3c2CCC3)SC1 [11a]
IC50 ([2]; Table 4): > 50 µM
IC50 [3, 11]: > 50 µM

c1cc(C2=Nn3c(nnc3-c3[nH]nc4c3CCC4)SC2)ccn1 [9a]
IC50 ([2]; Table 4): > 50 µM
IC50 [3, 11]: > 50 µM

Clc1cccc(C2=Nn3c(nnc3-c3[nH]nc4c3CCC4)SC2)c1 [6a]
IC50 ([2]; Table 4): > 50 µM

CCCCC1Sc2nnc(-c3[nH]nc4c3CCC4)n2N=C1c1ccc(Cl)c(Cl)c1 (stereo not drawn) [Cmpd 29]
GI50 [1, 8]: 3.3 µM
IC50 [2, 8]: > 50 µM
IC50 [3, 9]: 7.5 µM

COc1ccc(C2=Nn3c(nnc3-c3cc(-c4ccc(F)cc4)n[nH]3)SC2C)cc1 (stereo not drawn) [Cmpd 23]
GI50 [1, 8]: 29.5 ± 6.5 µM
IC50 [2, 8]: > 30 µM
IC50 [3, 9]: 4.2 µM

C1=Nn2c(nnc2-c2cc(-c3ccccc3)n[nH]2)SC1 [11b]
IC50 ([2]; Table 4): > 50 µM
IC50 [3, 11]: > 50 µM

Clc1cccc(C2=Nn3c(nnc3-c3cc(-c4ccccc4)n[nH]3)SC2)c1 [6b]
IC50 ([2]; Table 4): 45.9 µM
IC50 [3, 11]: 5.6 µM

CC1=Nn2c(nnc2-c2cc(-c3ccccc3)n[nH]2)SC1 [12b]
IC50 ([2]; Table 4): > 50 µM
IC50 [3, 11]: > 50 µM

Clc1ccc(C2=Nn3c(nnc3-c3[nH]nc4c3CCC4)SC2)cc1Cl [1a]
GI50 [7]: 14 to 26 µM
IC50 ([2]; Table 4): > 50 µM
IC50 [3, 11]: 6.8 ± 3.7 µM

c1ccc(C2=Nn3c(nnc3-c3[nH]nc4c3CCC4)SC2)cc1 [7a]
IC50 ([2]; Table 4): > 50 µM
IC50 [3, 11]: 21.2 ± 23.5 µM

Clc1ccc(C2=Nn3c(nnc3-c3[nH]nc4c3CCC4)SC2)s1 [10a]
IC50 ([2]; Table 4): > 50 µM

Clc1ccc(C2=Nn3c(nnc3-c3cc(-c4ccccc4)n[nH]3)SC2)cc1 [2b]
GI50 [7]: 27 to 44 µM
IC50 ([2]; Table 4): > 50 µM
IC50 [3, 11]: 9.6 µM

Clc1ccc(C2=Nn3c(nnc3-c3[nH]nc4c3CCC4)SC2)cc1 [2a]
IC50 ([2]; Table 4): > 50 µM

COc1ccc(C2=Nn3c(nnc3-c3[nH]nc4c3CCC4)SC2C)cc1 (stereo not drawn) [Cmpd 20]
GI50 [1, 8]: 0.2 µM
IC50 [2, 8]: > 50 µM
IC50 [3, 9]: 9.1 µM

CC(C)C1Sc2nnc(-c3[nH]nc4c3CCC4)n2N=C1c1ccc(Cl)c(Cl)c1 (stereo not drawn) [Cmpd 25]
GI50 [1, 8]: 8.2 µM
IC50 [2, 8]: > 50 µM
IC50 [3, 9]: 4.4 µM

c1ccc(-c2cc(-c3nnc4n3N=C(C3CCCCC3)CS4)[nH]n2)cc1 [13b]
IC50 ([2]; Table 4): > 50 µM
IC50 [3, 11]: > 50 µM

COc1ccc(C2=Nn3c(nnc3-c3cc(-c4ccc(Cl)cc4)n[nH]3)SC2C)cc1 (stereo not drawn) [compound 24]
GI50 [1, 10]: 2.2 µM
GI50 [4]: 8.4 µM
GI50 [5]: 14.9 µM
GI50 [6]: 17.4 µM

COc1cccc(C2=Nn3c(nnc3-c3cc(-c4cccc(Cl)c4)n[nH]3)SC2C)c1 (stereo not drawn) [compound 10536]
IC50 [1]: 9.3 µM
IC50 [3, 12]: 9.1 µM

CC1Sc2nnc(-c3cc(-c4ccccc4)n[nH]3)n2N=C1c1ccc(F)c(F)c1 (stereo not drawn) [compound 10532]
IC50 [1]: 14.2 µM
IC50 [3, 12]: 8.6 µM

CC1=Nn2c(nnc2-c2[nH]nc3c2CCC3)SC1 [12a]
IC50 ([2]; Table 4): > 50 µM
IC50 [3, 11]: > 50 µM

Clc1ccc(C2=Nn3c(nnc3-c3[nH]nc4c3CCC4)SC2Cc2ccccc2)cc1Cl (stereo not drawn) [compound 10308]
IC50 [1]: 3.3 µM
IC50 ([3]; FIG. 3, read-out: STAT3 potency (IC50)): < 10 µM
IC50 [3, 12]: 7.5 µM

CC1Sc2nnc(-c3cc(-c4cccc(Cl)c4)n[nH]3)n2N=C1c1ccc(Cl)c(Cl)c1 (stereo not drawn) [compound 10538]
IC50 [1]: 13.7 µM
IC50 [3, 12]: 32.2 µM

COc1ccc(C2=Nn3c(nnc3-c3cc(-c4ccccc4)n[nH]3)SC2C)cc1 (stereo not drawn) [compound 10511]
IC50 [1]: 28 µM
IC50 [3, 12]: 7.6 µM

COc1ccc(C2=Nn3c(nnc3-c3cc(-c4ccccc4)n(C)n3)SC2C(C)C)cc1 (stereo not drawn) [compound 10554]
IC50 [1]: 19.1 µM
IC50 [3, 12]: 8.3 µM
